Assay results as given in ChEMBL document CHEMBL1154163, “Pyrazole-based cathepsin S inhibitors with arylalkynes as P1 binding elements” (Bioorg Med Chem Lett, 2009).

Legend:
Cathepsin S [1] = biological target: Cathepsin S (Homo sapiens, UniProt P25774); assay: Inhibition of human recombinant cathepsin S expressed in baculovirus by FRET assay
Cathepsin S [2] = biological target: Cathepsin S (Mus musculus, UniProt O70370); assay: Inhibition of mouse cathepsin S expressed in baculovirus by FRET assay
Cathepsin B = Cathepsin B (Homo sapiens, UniProt P07858); assay: Inhibition of human cathepsin B
Cathepsin F = biological target: T1, Cathepsin F (Homo sapiens, UniProt Q9UBX1); assay: Inhibition of human cathepsin F
T1 sequence (Q9UBX1 whole entry): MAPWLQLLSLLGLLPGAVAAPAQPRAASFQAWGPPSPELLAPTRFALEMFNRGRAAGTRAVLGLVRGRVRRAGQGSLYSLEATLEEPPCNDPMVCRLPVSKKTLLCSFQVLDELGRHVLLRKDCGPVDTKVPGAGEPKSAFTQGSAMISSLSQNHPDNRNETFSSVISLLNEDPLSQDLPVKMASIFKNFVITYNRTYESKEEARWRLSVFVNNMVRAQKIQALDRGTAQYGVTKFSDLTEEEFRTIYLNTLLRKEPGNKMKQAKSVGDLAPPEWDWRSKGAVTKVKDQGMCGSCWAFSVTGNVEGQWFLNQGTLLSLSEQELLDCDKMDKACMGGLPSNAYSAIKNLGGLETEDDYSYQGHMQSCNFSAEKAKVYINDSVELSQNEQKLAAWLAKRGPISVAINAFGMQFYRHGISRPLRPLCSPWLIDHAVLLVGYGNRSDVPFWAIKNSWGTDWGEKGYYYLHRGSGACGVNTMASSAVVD

Procathepsin L = Procathepsin L (Homo sapiens, UniProt P07711); assay: Inhibition of human cathepsin L
[3] = Cmax in Sprague-Dawley rat at 10 mg/kg, po; format: ADME, organism-based; parameters: dose 10 mg/kg, route oral; conditions: in vivo
Rattus norvegicus = assay: AUC in Sprague-Dawley rat at 10 mg/kg, po; format: ADME, organism-based, Plasma; parameters: dose 10 mg/kg, route oral; conditions: in vivo
[4] = Half life in Sprague-Dawley rat at 2 mg/kg, iv; format: ADME, organism-based; parameters: dose 2 mg/kg, route intravenous; conditions: in vivo
[5] = Clearance in Sprague-Dawley rat at 2 mg/kg, iv; format: ADME, organism-based; parameters: dose 2 mg/kg, route intravenous; conditions: in vivo
[6] = Bioavailability in Sprague-Dawley rat at 2 mg/kg, iv; format: ADME, organism-based; conditions: in vivo

Chain of Cathepsin S (Homo sapiens, UniProt P25774) (P25774 whole entry): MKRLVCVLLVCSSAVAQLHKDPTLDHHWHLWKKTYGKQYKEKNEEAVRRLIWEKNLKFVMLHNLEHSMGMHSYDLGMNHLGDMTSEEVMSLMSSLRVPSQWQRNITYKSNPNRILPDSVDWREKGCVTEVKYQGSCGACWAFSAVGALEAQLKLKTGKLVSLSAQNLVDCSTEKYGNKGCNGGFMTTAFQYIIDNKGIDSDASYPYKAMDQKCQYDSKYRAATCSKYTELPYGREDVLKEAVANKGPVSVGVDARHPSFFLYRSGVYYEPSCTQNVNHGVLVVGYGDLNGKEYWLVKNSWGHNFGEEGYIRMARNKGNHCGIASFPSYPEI
Chain of Cathepsin S (Mus musculus, UniProt O70370) (O70370 whole entry): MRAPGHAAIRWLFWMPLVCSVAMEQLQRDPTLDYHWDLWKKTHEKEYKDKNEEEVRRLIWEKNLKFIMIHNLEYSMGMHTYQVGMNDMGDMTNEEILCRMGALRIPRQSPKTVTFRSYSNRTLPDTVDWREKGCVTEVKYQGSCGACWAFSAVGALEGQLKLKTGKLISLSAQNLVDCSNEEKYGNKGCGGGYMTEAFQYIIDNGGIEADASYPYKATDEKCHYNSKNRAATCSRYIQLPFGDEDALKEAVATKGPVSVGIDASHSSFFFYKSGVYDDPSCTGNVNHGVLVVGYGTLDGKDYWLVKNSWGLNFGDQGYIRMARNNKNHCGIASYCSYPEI
Chain of Procathepsin L (P07711 whole entry): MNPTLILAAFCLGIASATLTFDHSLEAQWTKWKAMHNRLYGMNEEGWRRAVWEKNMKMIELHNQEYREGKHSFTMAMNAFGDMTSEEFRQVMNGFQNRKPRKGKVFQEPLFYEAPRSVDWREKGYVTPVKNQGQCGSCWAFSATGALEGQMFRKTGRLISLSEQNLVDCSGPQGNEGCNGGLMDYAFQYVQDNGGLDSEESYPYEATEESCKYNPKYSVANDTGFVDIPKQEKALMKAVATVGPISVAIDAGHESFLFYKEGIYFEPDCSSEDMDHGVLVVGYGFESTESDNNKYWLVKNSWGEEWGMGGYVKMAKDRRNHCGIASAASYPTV

Row | Structure (SMILES) | IC50 (Cathepsin S [1]) | other results
1 | O=C(c1ccco1)N1CCc2c(c(-c3ccc(Cl)c(C#Cc4ccc(Cl)cc4)c3)nn2CCCN2CCOCC2)C1 | 330 nM | –
2 | CS(=O)(=O)N1CCc2c(c(-c3ccc(Cl)c(C#Cc4ccc(C(F)(F)F)cc4)c3)nn2CCCN2CCOCC2)C1 | 280 nM | –
3 | CS(=O)(=O)N1CCc2c(c(-c3ccc(Cl)c(C#Cc4ccc(C(=O)O)cc4)c3)nn2CCCN2CCOCC2)C1 | 510 nM | –
4 | CCCCC#Cc1cc(-c2nn(CCCN3CCOCC3)c3c2CN(S(C)(=O)=O)CC3)ccc1Cl | 11000 nM | –
5 | COC(=O)N1CCc2c(c(-c3ccc(Cl)c(C#Cc4ccc(Cl)cc4)c3)nn2CCCN2CCOCC2)C1 | 40 nM | –
6 | COc1ccc(C#Cc2cc(-c3nn(CCCN4CCOCC4)c4c3CN(S(C)(=O)=O)CC4)ccc2Cl)cc1 | 480 nM | –
7 | COc1ccccc1C#Cc1cc(-c2nn(CCCN3CCOCC3)c3c2CN(S(C)(=O)=O)CC3)ccc1Cl | 550 nM | –
8 | CS(=O)(=O)N1CCc2c(c(-c3ccc(Cl)c(C#Cc4ccsc4)c3)nn2CCCN2CCOCC2)C1 | 1500 nM | –
9 | CS(=O)(=O)N1CCc2c(c(-c3ccc(Cl)c(C#Cc4ccc(Cl)cc4)c3)nn2CCCN2CCOCC2)C1 | – | IC50 (Cathepsin S [2]): 690 nM; IC50 (Cathepsin B): > 20000 nM; IC50 (Cathepsin F): > 20000 nM; IC50 (Procathepsin L): > 20000 nM; Cmax [3]: 530 nM; AUC (Rattus norvegicus): 48 uM.hr/L; half-life [4]: 2 h; clearance [5]: 3 mL/min; bioavailability [6]: 21%
10 | CC#Cc1cc(-c2nn(CCCN3CCOCC3)c3c2CN(S(C)(=O)=O)CC3)ccc1Cl | 7400 nM | –
11 | Cc1ccccc1C#Cc1cc(-c2nn(CCCN3CCOCC3)c3c2CN(S(C)(=O)=O)CC3)ccc1Cl | 1100 nM | –
12 | CS(=O)(=O)N1CCc2c(c(-c3ccc(Cl)c(C#Cc4cccc(C(F)(F)F)c4)c3)nn2CCCN2CCOCC2)C1 | 1500 nM | –
13 | CS(=O)(=O)N1CCc2c(c(-c3ccc(Cl)c(C#Cc4ccc(N)cc4)c3)nn2CCCN2CCOCC2)C1 | 430 nM | –
